In US12263155B2, “Combinations of monoamine oxidase inhibitors and serotonin receptor agonists and their therapeutic use” (Remedi, Inc., priority 2022, dated 2025):
Like-named read-outs stand apart in the source and are kept apart here.

Key:
MAO-A = molecular target: T1, MAO-A (Homo sapiens, UniProt P21397); conditions: cited from earlier work
T1 sequence (P21397 1-527): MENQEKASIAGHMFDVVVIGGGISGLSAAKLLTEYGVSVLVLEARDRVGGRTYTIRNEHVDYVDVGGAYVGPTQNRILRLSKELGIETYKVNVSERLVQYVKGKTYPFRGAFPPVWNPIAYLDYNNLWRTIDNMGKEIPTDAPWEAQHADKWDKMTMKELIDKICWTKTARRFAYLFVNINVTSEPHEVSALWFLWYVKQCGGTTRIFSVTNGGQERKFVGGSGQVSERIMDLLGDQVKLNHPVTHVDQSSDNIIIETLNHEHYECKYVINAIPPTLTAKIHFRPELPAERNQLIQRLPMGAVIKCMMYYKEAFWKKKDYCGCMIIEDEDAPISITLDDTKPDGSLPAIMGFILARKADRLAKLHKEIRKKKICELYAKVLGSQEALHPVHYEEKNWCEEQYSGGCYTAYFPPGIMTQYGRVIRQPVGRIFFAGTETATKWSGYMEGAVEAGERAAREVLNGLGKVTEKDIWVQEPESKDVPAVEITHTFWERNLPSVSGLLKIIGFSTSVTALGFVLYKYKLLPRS

rat liver MAO-B = molecular target: T2, rat liver MAO-B (Rattus norvegicus, UniProt P19643); experiment: In vitro inhibition of rat liver MAO-B; type: biochemical; conditions: 10 μM [14C]-PEA
T2 construct: from tissue; host or cells: rat liver
T2 sequence (P19643 1-520): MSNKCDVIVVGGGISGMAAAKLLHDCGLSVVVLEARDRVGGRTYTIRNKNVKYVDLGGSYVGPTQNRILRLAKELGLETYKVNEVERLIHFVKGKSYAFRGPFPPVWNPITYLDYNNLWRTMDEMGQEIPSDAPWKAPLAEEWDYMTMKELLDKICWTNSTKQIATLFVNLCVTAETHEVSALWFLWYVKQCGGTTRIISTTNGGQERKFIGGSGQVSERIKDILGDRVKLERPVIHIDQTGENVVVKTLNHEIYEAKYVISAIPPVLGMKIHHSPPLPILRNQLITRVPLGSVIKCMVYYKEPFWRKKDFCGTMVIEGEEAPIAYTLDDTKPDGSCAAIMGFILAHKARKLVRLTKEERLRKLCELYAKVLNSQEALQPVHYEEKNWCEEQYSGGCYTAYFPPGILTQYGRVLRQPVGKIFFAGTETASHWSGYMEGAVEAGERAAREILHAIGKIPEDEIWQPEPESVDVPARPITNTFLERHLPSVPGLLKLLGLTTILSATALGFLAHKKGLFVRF
Experimental: Methods: The soluble extract of the mitochondrial enriched fraction (P2 pellet), which was prepared from brain homogenates of male Sprague-Dawley rats, served as the source of MAO-A enzymatic activity. The P2 fraction was prepared and was stored frozen until being thawed for use on the day of assay. Final concentrations of 50 μM [^14C]-serotonin (5-HT) and 10 μM [^14C]-phenylethylamine (PEA) were employed as specific substrates for MAO-A and MAO-B, respectively. Test compound inhibition was based on competition for oxidation of these radio-labeled substrates. MAO-A assay specificity was enhanced by inclusion of 0.1 μM deprenyl to prevent substrate oxidation by MAO-B. Likewise, MAO-B assays included 0.1 μM clorgyline to block MAO-A activity. […] Inhibition of enzymatic activities was expressed as IC50 and as the Ki, which was calculated using the Cheng-Prusoff equation.

[1] = Phase I modified release tablets BID pharmacokinetics; type: in vivo, human; conditions: for Cmax / AUC / concentration at 7 day: human, plasma, oral, 125 mg
Experimental: Methods: A total of 20 Subjects (16 on CX157 and 4 on placebo) were dosed with CX157 Modified Release Tablets, 125 mg BID (total daily dose of 250 mg) or placebo in Period 1 for 7 days. […] Subjects who were randomized to CX157 125 mg BID in Period 1 received CX157 175 mg BID in Period 2, after a washout of 7 days. Subjects randomized to placebo in Period 1 received placebo in Period 2, after a washout of 7 days. Blood samples for PK analysis were collected during both periods of the study.
Each oval, biconvex CX157 Film Coated Tablet, 125 mg has a white opaque film coating (Advantia™ Prime) and is stored long-term at controlled room temperature conditions [25° C. (77° F.); excursions 15-30° C. (59-86° F.)].
Each CX157 Modified Release Tablet, 175 mg is stored long-term at controlled room temperature conditions [25° C. (77° F.), excursions 15-30° C. (59-86° F.)]; the tablets are a modified caplet shape, pale pink in color, and plain on both sides.

For `O=S1(=O)c2ccc(F)cc2Oc2cc(OCC(F)(F)F)ccc21` [CX157, 3-fluoro-7(2,2,2-trifluorethoxy)phenoxathiine-10,10-dioxide], the “potency for MAO-A inhibition relative to moclobemide” value (MAO-A) is listed as “more than 100 times”, the “inhibition of rat liver MAO-B” value (rat liver MAO-B) is listed as “did not inhibit” and the “fluctuation in CX157 concentrations during each 12-h dosing interval at steady state” value ([1]; 125 mg BID, Day 7) is listed as 4.6 fold. For the same molecule, the “accumulation, Day 7 versus Day 1 exposures” value ([1]; BID dosing with 125 mg MR tablets) was 2.6 fold, the Cmax ([1]; 125 mg BID, Day 1, read-out: mean Cmax) was 134 ± 103 ng/mL and the AUC ([1]; 12-hour AUC, 125 mg BID, Day 1) was 702 ± 500 ng·h/mL. The AUC ([1]; MR tablets 125 mg BID, Day 7, mean, read-out: AUCSS) was 1280 ± 651 ng·h/mL, the concentration at 7 day ([1]; MR tablets 125 mg BID, Day 7, mean, read-out: CSS) was 107 ± 54 ng/mL and the Cmax ([1]; MR tablets 125 mg BID, Day 7, mean, read-out: Cmax) was 231 ± 114 ng/mL. It also gave a concentration at 7 day ([1]; MR tablets 125 mg BID, Day 7, mean, read-out: Cmin) of 54.9 ± 32 ng/mL.
